Source: article PMC4237514, “Novel amino-β-lactam derivatives as potent cholesterol absorption inhibitors” (European Journal of Medicinal Chemistry, 2014)
Values joined by “and” are separate entries in the source; they are usually repeats but may differ in a detail not shown here. Equal entries are not always repeated.

Key:
[1] = MTT cytotoxicity assay in MDCKII wild type cells; assay type: cell-based; conditions: dog, MDCKII wild type cells, read-out: LC50, MDCKII
Experimental: (§1) Cytotoxicity of amino alcohols 5, 6 and their diastereoisomeric mixture 5/6 was analyzed using MTT cell proliferation assay and the LC50 values were determined in MDCKII wild type, hNPC1L1/MDCKII, and HepG2 cells (Table 2). MDCKII cells stably expressing human Niemann-Pick C1-like protein 1 (hNPC1L1/MDCKII) (Figure S1) are a pharmacologically validated system for investigating NPC1L1-mediated cholesterol uptake. The LC50 values were higher than 100 μM and considered nontoxic in all three cell lines. […] In addition, we tested the in vitro cytotoxicity of ezetimibe 1 and compounds 5, 6, and 5/6 (70:30) in combination with micelles and found all LC50 values to be above 100 μM (Figure S2).
(§2) Madin–Darby Canine Kidney II (MDCKII) cells, MDCKII cells stably expressing human NPC1L1 (hNPC1L1/MDCKII), and human HepG2 liver cells were maintained in DMEM (Dulbecco's Modified Eagle Medium, Invitrogen, USA) containing 100 units/mL penicillin and 100 μg/mL streptomycin supplemented with 10% FCS (Sigma–Aldrich, Germany). The cells were grown at 37 °C in a humidified 5% CO2 incubator. Stable transfection of MDCKII cells with human NPC1L1 protein was performed using Lipofectamine LTX (Invitrogen, USA) according to the manufacturer's protocol. Selection with 1 mg/mL G418 (Sigma–Aldrich, Germany) was started 2 days after transfection. The concentration of G418 was decreased to 500 μg/mL after 14 days. Stably transfected cells were maintained in DMEM containing 100 units/mL penicillin and 100 μg/mL streptomycin supplemented with 10% FCS and 500 μg/mL G418.
(§3) MDCKII, hNPC1L1/MDCKII, and HepG2 cells were seeded in 96-well microtiter plates on day 0 at densities of 3000 cells/well. On day 1, tested compounds (73 mM stock solution in DMSO) were added in five consecutive 10-fold dilutions (10^−8 to 10^−4 mol/L) and incubated for 72 h. Cytotoxicity of the compounds was assessed on day 4 by the MTT cell proliferation assay (Sigma–Aldrich, Germany) which detects mitochondrial dehydrogenase activity in viable cells. The results are expressed as LC50 and the values for each compound were calculated from dose–response curves using linear regression analysis. Each concentration was tested in quadruplicate in three independent experiments. Toxicity of the compounds in combination with micelles was also tested using the same method. MDCKII and hNPC1L1/MDCKII were seeded in 96-well microtiter plates (150 μL medium/well) at a density of 2 × 10^5 cells/mL medium 24 h before the experiment. Micelles were prepared according to the modified method reported by Field et al.. In brief, 0.25 mM oleic acid, 50 μM cholesterol, 10 μM compactin, 50 μM mevalonate, 5 mM Na-taurocholate (Sigma–Aldrich, Germany) in DMEM/10% FCS were mixed and sonicated. Following the micellar formation, compounds 1, 5, 6, and 5/6 (70:30) (73 mM stock solution in DMSO) were added to the medium and vortexed to obtain the final concentrations of the compounds (25, 50, 100, 150, 200 μM) and applied to the cells for 1 h. Thereafter, cytotoxicity was determined using the MTT assay.

[2] = MTT cytotoxicity assay in hNPC1L1/MDCKII cells; assay type: cell-based; conditions: dog, MDCKII cells stably expressing human NPC1L1 (hNPC1L1/MDCKII), read-out: LC50, hNPC1L1/MDCKII
Experimental: as §1, §2
as §3, with “Following the micellar formation, compounds 1, 5, 6, and 5/6 (70:30) (73 mM stock solution in DMSO) were added to the medium and vortexed to obtain the final concentrations of the compounds (25, 50, 100, 150, 200 μM) and applied to the cells for 1 h.” left out

[3] = MTT cytotoxicity in combination with micelles; assay type: cell-based; conditions: dog, MDCKII wildtype and hNPC1L1/MDCKII cells, Figure S2, read-out: LC50 in combination with micelles
Experimental: as §3
Figure S2. In vitro cytotoxicity of the compounds 5, 6, and 5/6 (70:30) in combination with micelles. Cytotoxicity of the newly synthesized compounds was determined in (A) MDCKII wildtype and (B) hNPC1L1/MDCKII cells. The cells were incubated with the indicated concentrations of the compounds in Medium B (0.25 mM oleic acid, 50 μM free cholesterol, 10 μM compactin, 50 μM mevalonate, 5 mM Na-taurocholate in DMEM supplemented with 5% LPDS) for 1 h. The results are expressed as percentage of the survival of cells treated with the compound compared to untreated cells. Data represent mean ± S.E.M. of three independent experiments.

cholesterol absorption = assay: In vivo acute cholesterol absorption; parameters: species or system C57BL/6 mice; conditions: mice; for In vivo inhibition (%) of cholesterol absorption, Duodenum / In vivo inhibition (%) of cholesterol absorption, Ileum / In vivo inhibition (%) of cholesterol absorption, Jejunum / In vivo inhibition (%) of cholesterol absorption, Liver / In vivo inhibition (%) of cholesterol absorption, Plasma: [3H]cholesterol reduction relative to vehicle
Experimental: In vivo, we first determined the consequences of ezetimibe 1 and amino alcohols 5 and 6 on cholesterol absorption. We therefore gavaged mice with 2 μCi [^3H]cholesterol and 10 mg/kg/day of each compound or vehicle, and radioactivity was measured in plasma, liver, and three equal parts of the intestine (duodenum, jejunum, ileum). Percentage of [^3H]cholesterol reduction is presented relative to vehicle, respectively. […] We therefore increased the dose to 20 mg/kg/day and determined inhibition of cholesterol absorption. The inhibition in duodenum and jejunum was similar to the lower dose, whereas in ileum it raised from 21% to 41% (Table 3). Decreased cholesterol absorption of 5 in the small intestine compared to ezetimibe 1 might be explained by the fact that 2-azetidinones are moderate acyl-coenzyme A:cholesterol acyltransferase inhibitors and their level of activity is highly structure-dependent. It might therefore be speculated that acyl-coenzyme A:cholesterol acyltransferase activity of amino alcohols 5 and 6 and their diastereoisomeric mixtures is altered compared to ezetimibe 1.
Male C57BL/6 mice aged 25–28 weeks were maintained under a 12 h light/12 h dark cycle in a temperature-controlled environment with free access to chow diet (Ssniff, Germany) and water. For 2 days, mice (n = 3–5) were fasted for 4 h and gavaged with corn oil (100 μl) (vehicle) containing ezetimibe 1 (10 mg/kg/day) or compounds 5, 6, and 5/6 (70:30) (10 or 20 mg/kg/day). On day 2, 90 min post vehicle or compound treatment, mice were gavaged with corn oil (200 μl) containing [^3H]cholesterol (2 μCi) ([1,2–3H(N)] cholesterol, 1 mCi/mL, ARC Inc., St. Louis, USA). Plasma, liver, and small intestines were collected 4 h post-gavage. Cholesterol uptake and absorption were determined as previously described.

[4] = gavage 10 mg/kg/day for 2 days, 10 mg/kg/day

Row | Structure (SMILES) | CC50 at 72 h [1] [µM] | CC50 at 72 h [2] [µM] | CC50 at 1 h [3] [µM] | In vivo inhibition (%) of cholesterol absorption, Duodenum (cholesterol absorption; gavage 20 mg/kg/day for 2 days) [%] | In vivo inhibition (%) of cholesterol absorption, Ileum (cholesterol absorption; gavage 20 mg/kg/day for 2 days) [%] | In vivo inhibition (%) of cholesterol absorption, Jejunum (cholesterol absorption; gavage 20 mg/kg/day for 2 days) [%] | In vivo inhibition (%) of cholesterol absorption, Liver (cholesterol absorption; gavage 20 mg/kg/day for 2 days) [%] | In vivo inhibition (%) of cholesterol absorption, Plasma (cholesterol absorption; gavage 20 mg/kg/day for 2 days) [%] | CC50 at 96 h ([2]; 72 h) [µM] | In vivo inhibition (%) of cholesterol absorption, Duodenum (cholesterol absorption; gavage 10 mg/kg/day for 2 days) [%] | In vivo inhibition (%) of cholesterol absorption, Ileum (cholesterol absorption; gavage 10 mg/kg/day for 2 days) [%] | In vivo inhibition (%) of cholesterol absorption, Jejunum (cholesterol absorption; gavage 10 mg/kg/day for 2 days) [%] | In vivo inhibition (%) of cholesterol absorption, Liver (cholesterol absorption; gavage 10 mg/kg/day for 2 days) [%] | In vivo inhibition (%) of cholesterol absorption, Plasma (cholesterol absorption; gavage 10 mg/kg/day for 2 days) [%] | reduction of radioactivity in the small intestine (cholesterol absorption; 10 mg/kg/day, small intestine overall, not statistically significant) [%] | In vivo inhibition (%) of cholesterol absorption, Ileum (cholesterol absorption; [4]) | In vivo inhibition (%) of cholesterol absorption, Liver (cholesterol absorption; [4]) | In vivo inhibition (%) of cholesterol absorption, Plasma (cholesterol absorption; [4]) | In vivo inhibition (%) of cholesterol absorption, Ileum (cholesterol absorption; gavage 20 mg/kg/day for 2 days, 20 mg/kg/day) | inhibition of [3H]cholesterol in the ileum (cholesterol absorption; span over the 10 and 20 mg/kg/day groups)
1 | O=C1[C@H](NCC(O)c2ccc(F)cc2)[C@@H](c2ccc(O)cc2)N1c1ccc(F)cc1 (mixture of isomers) [5/6 (70:30), (3R,4R)-3-[(2R/S)-2-(4-fluorophenyl)-2-hydroxyethylamino]-1-(4-fluorophenyl)-4-(4-hydroxyphenyl)azetidin-2-one] | > 100 | > 100 | > 100 | 49 ± 7 | 41 ± 21 | 48 ± 9 | 70 ± 5 | 64 ± 7 | – | – | – | – | – | – | – | – | – | – | – | –
2 | O=C1[C@H](CC[C@H](O)c2ccc(F)cc2)[C@@H](c2ccc(O)cc2)N1c1ccc(F)cc1 [Compound 1, ezetimibe, reference compound] | > 100 | – | > 100 | – | – | – | – | – | 62.3 | 65 ± 1 | 47 ± 3 | 61 ± 2 | 52 ± 3 | 60 ± 6 | – | – | – | – | – | –
3 | O=C1[C@H](NC[C@H](O)c2ccc(F)cc2)[C@@H](c2ccc(O)cc2)N1c1ccc(F)cc1 [Compound 5] | > 100 | > 100 | > 100 | 18 ± 14 | – | 19 ± 16 | 33 ± 6 | 52 ± 7 | – | 23 ± 18 | – | 23 ± 13 | – | – | ~22 | 21% and 21 ± 20% | 44% and 44 ± 6 % | 50% and 50 ± 8 % | 41% and 41 ± 12 % | –
4 | O=C1[C@H](NC[C@@H](O)c2ccc(F)cc2)[C@@H](c2ccc(O)cc2)N1c1ccc(F)cc1 [Compound 6, (3R,4R)-3-[(2S)-2-(4-fluorophenyl)-2-hydroxyethylamino]-1-(4-fluorophenyl)-4-(4-hydroxyphenyl)azetidin-2-one] | > 100 | > 100 | > 100 | 35 ± 9 | 60 ± 9 | 26 ± 8 | 49 ± 10 | 38 ± 11 | – | 43 ± 11 | 58 ± 8 | 37 ± 11 | – | – | – | – | 47% and 47 ± 0 % | 32% and 32 ± 5 % | – | 58–60%
